Experimental findings from ChEMBL document CHEMBL1201862, “PubChem BioAssay data set” (2004) are described below.

Among the test systems are A549; EKVX; MDA-MB-231; MDA-MB-435; SK-MEL-28; HCC 2998; SNB-19; Malme-3M; OVCAR-4; SF-295; HCT-116; CCRF-CEM; NCI-H522; SF-268; HL-60; NCI-H23; UO-31; DU-145; T47D.
What all share (test): growth of human tumour cells (NCI), 48 h

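1) Cells in 96-well plates. 2) Compound, 48 h, 5 concentrations. 3) Linear interpolation between surrounding doses. 4) Unreached endpoint = highest concentration. GI50 is the concentration that inhibits growth by half.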 Calls of active or inactive are those of the source. Rule as the data show it: active = GI50 up to about 1.1 µM and inactive = higher.

`N#CC1C(=O)NC23CCCCC2C1c1ccccc1O3` (stereo not drawn): the GI50 in the assay with A549 is > 100 µM (inactive); in the assay with EKVX, > 100 µM (inactive); in the assay on MDA-MB-231, > 100 µM (inactive); in the assay on MDA-MB-435 it was > 100 µM (inactive); in the assay on SK-MEL-28, 53.5 µM (inactive); in the assay with HCC 2998, > 100 µM (inactive). Further, the GI50 in the assay on SNB-19 is > 100 µM (inactive); with Malme-3M, > 100 µM (inactive); with OVCAR-4, > 100 µM (inactive); with SF-295, > 100 µM (inactive); with HCT-116 it was > 100 µM (inactive); in the assay with CCRF-CEM, 74.8 µM (inactive). In addition, the GI50 in the assay with NCI-H522 was > 100 µM (inactive); in the assay on SF-268, 2.1 µM (inactive); in the assay with HL-60, > 100 µM (inactive); in the assay on NCI-H23, > 100 µM (inactive); in the assay with UO-31, > 100 µM (inactive); in the assay with DU-145, > 100 µM (inactive).
For `Cc1cc(Br)c(O)c(-c2cscn2)c1`, the GI50 with A549 was 20.2 µM (inactive); in the assay on EKVX it was 33.1 µM (inactive); in the assay on MDA-MB-435, 20.7 µM (inactive); in the assay with HCC 2998, 19 µM (inactive); with SNB-19, 15.2 µM (inactive); in the assay on Malme-3M it was 21.8 µM (inactive). Also, the GI50 in the assay with OVCAR-4 was 14.6 µM (inactive); in the assay with SF-295, 23.2 µM (inactive); with HCT-116 it was 12.6 µM (inactive); with CCRF-CEM, 6.55 µM (inactive); in the assay with HL-60, 3.66 µM (inactive); in the assay with NCI-H23, 14.4 µM (inactive). In addition, in the assay with UO-31, the GI50 was 12.7 µM (inactive).
`O/N=C(/C(Cl)=C(Cl)Cl)C(Cl)Cl`: the GI50 in the assay with A549 is > 100 µM (inactive); with EKVX, 42.5 µM (inactive); in the assay with MDA-MB-231, 19.2 µM (inactive); with MDA-MB-435, 18.2 µM (inactive); in the assay on SK-MEL-28 it was 15.2 µM (inactive); in the assay with HCC 2998, 31.4 µM (inactive). Moreover, the GI50 in the assay on SNB-19 was 31.5 µM (inactive); with Malme-3M it was 28.8 µM (inactive); in the assay with OVCAR-4, 16.7 µM (inactive); in the assay with SF-295 it was 19.2 µM (inactive); in the assay on HCT-116, 17.9 µM (inactive); with CCRF-CEM, 12.4 µM (inactive). Besides, the GI50 with SF-268 is 17 µM (inactive); in the assay on HL-60 it was 8.28 µM (inactive); with NCI-H23, 14.9 µM (inactive); in the assay with UO-31 it was 20.9 µM (inactive); in the assay on DU-145 it was 29.6 µM (inactive).
Consider `Oc1ccc2c(c1)CCc1c-2n(CCN2CCOCC2)c2ccc(O)cc12`, for which the GI50 with EKVX was 38.8 µM (inactive); in the assay with MDA-MB-231, 49.7 µM (inactive); with MDA-MB-435, 44.4 µM (inactive); with SK-MEL-28 it was 29.3 µM (inactive); in the assay with SNB-19 it was 25.1 µM (inactive); with Malme-3M, 25.3 µM (inactive). The GI50 in the assay on SF-295 is 47.2 µM (inactive); in the assay on HCT-116, 41.3 µM (inactive); with CCRF-CEM, 38.2 µM (inactive); with SF-268 it was 31.8 µM (inactive); with HL-60, 55.6 µM (inactive); in the assay with NCI-H23, 27.7 µM (inactive). Also, the GI50 in the assay on UO-31 was 10.4 µM (inactive); with T47D, 31.1 µM (inactive); with DU-145 it was 33 µM (inactive).
As for `Cc1ccc(O)c(-c2csc(NCN3CCN(CNc4nc(-c5cc(C)ccc5O)cs4)CC3)n2)c1`, the GI50 in the assay on A549, in the assay with EKVX, in the assay with MDA-MB-231, with MDA-MB-435, with SK-MEL-28 and with HCC 2998 was > 100 µM (inactive) each time. The GI50 is > 100 µM (inactive) in the assay with SNB-19; > 100 µM (inactive) in the assay on Malme-3M; > 100 µM (inactive) in the assay on OVCAR-4; > 100 µM (inactive) with SF-295; > 100 µM (inactive) in the assay with HCT-116; 20.5 µM (inactive) in the assay with CCRF-CEM. Moreover, the GI50 with NCI-H522, with SF-268, in the assay on HL-60, in the assay with NCI-H23, in the assay on UO-31 and in the assay on DU-145 was > 100 µM (inactive) throughout.
Turning to `COC1=CC(=C(C#N)/C(=N\c2ccccc2)SC)C=C(OC)C1=O`, the GI50 in the assay with A549 was 78.9 µM (inactive); with EKVX, > 100 µM (inactive); in the assay with SK-MEL-28 it was > 100 µM (inactive); in the assay on HCC 2998, 94.8 µM (inactive); in the assay with Malme-3M it was > 100 µM (inactive); in the assay with SF-295 it was 69.2 µM (inactive). The GI50 with HCT-116 is 29.9 µM (inactive); in the assay with CCRF-CEM, 16 µM (inactive); in the assay with NCI-H522, 37.6 µM (inactive); in the assay on NCI-H23, 54.5 µM (inactive); with UO-31, 36.5 µM (inactive).
As to `Cc1ccc2c(c1)C(=C(C#N)C#N)CCCS2(=O)=O`, the GI50 in the assay on A549, in the assay on EKVX, in the assay on MDA-MB-231, in the assay with MDA-MB-435, in the assay on SK-MEL-28 and in the assay with HCC 2998 was > 100 µM (inactive) in each case. The GI50 with SNB-19, in the assay on OVCAR-4, in the assay on SF-295, with HCT-116, with CCRF-CEM and in the assay on SF-268 was > 100 µM (inactive) in each case. Besides, the GI50 in the assay with HL-60, with NCI-H23, with UO-31, with T47D and with DU-145 was > 100 µM (inactive) in each case.
For the molecule `Cc1cc2c(cc1Cl)SC(NS(=O)(=O)c1ccc(Cl)cc1)=NS2(=O)=O`, the GI50 in the assay on A549 was > 100 µM (inactive); in the assay with EKVX, 38.4 µM (inactive); in the assay with MDA-MB-231 it was 67.6 µM (inactive); in the assay on MDA-MB-435, 91.6 µM (inactive); in the assay with SK-MEL-28, > 100 µM (inactive); in the assay with SNB-19 it was 65.6 µM (inactive). Moreover, the GI50 is 39.4 µM (inactive) with OVCAR-4; 23 µM (inactive) in the assay on SF-295; 35.4 µM (inactive) in the assay with HCT-116; 56.8 µM (inactive) with CCRF-CEM; 21.7 µM (inactive) in the assay on NCI-H522; 85.9 µM (inactive) in the assay on SF-268. Also, the GI50 with HL-60 is > 100 µM (inactive); with NCI-H23 it was 30.5 µM (inactive); in the assay on UO-31, > 100 µM (inactive); in the assay with T47D, > 100 µM (inactive); with DU-145, 83.9 µM (inactive).
Turning to `Clc1ccc(C2=NOC3C4CCC(C4)C23)cc1` (stereo not drawn), the GI50 in the assay with A549, in the assay with EKVX, in the assay on SK-MEL-28, in the assay on HCC 2998, in the assay with SNB-19 and in the assay on Malme-3M was > 100 µM (inactive) throughout. Moreover, the GI50 with OVCAR-4 is > 100 µM (inactive); with SF-295, 73.1 µM (inactive); with HCT-116 it was > 100 µM (inactive); in the assay with CCRF-CEM, > 100 µM (inactive); with NCI-H522 it was 59.8 µM (inactive); in the assay with SF-268, > 100 µM (inactive). Moreover, the GI50 was 56 µM (inactive) with HL-60, > 100 µM (inactive) in the assay with NCI-H23 and > 100 µM (inactive) in the assay with UO-31.
On to `COc1cc(CNc2nc3cc(C(F)(F)F)ccc3nc2C(=O)O)cc(OC)c1OC`, for which the GI50 in the assay on A549 is 21.4 µM (inactive); with EKVX, 20.1 µM (inactive); with MDA-MB-435, 23.4 µM (inactive); in the assay with SK-MEL-28, 22.5 µM (inactive); in the assay with HCC 2998 it was 41.4 µM (inactive); with SNB-19, 21.6 µM (inactive). Besides, the GI50 in the assay on Malme-3M was 38.6 µM (inactive); with SF-295, 20.5 µM (inactive); in the assay with HCT-116, 15.6 µM (inactive); with NCI-H522 it was 29.2 µM (inactive); in the assay on SF-268 it was 27.7 µM (inactive); in the assay with HL-60, 0.1 µM (active). In addition, the GI50 with NCI-H23 is 33.8 µM (inactive); in the assay with UO-31, 18.6 µM (inactive); in the assay with T47D it was 21.1 µM (inactive); in the assay on DU-145, 33.2 µM (inactive).
`COC(=O)C1=CC2C(=O)c3ccccc3C1(c1ccccc1)N2C1CCCCC1` (stereo not drawn): the GI50 was 20 µM (inactive) in the assay on A549; 34.9 µM (inactive) in the assay with EKVX; 17 µM (inactive) in the assay with MDA-MB-231; 16.9 µM (inactive) in the assay on MDA-MB-435; 17.6 µM (inactive) in the assay on SK-MEL-28; 3.15 µM (inactive) with HCC 2998. Also, the GI50 in the assay with SNB-19 is 39.9 µM (inactive); with Malme-3M, 22.6 µM (inactive); with OVCAR-4, 17.1 µM (inactive); in the assay on SF-295, 16 µM (inactive); with HCT-116 it was 25.1 µM (inactive); with CCRF-CEM it was 15.1 µM (inactive). Further, the GI50 in the assay with NCI-H522 was 27.9 µM (inactive); in the assay on SF-268, 27.2 µM (inactive); with HL-60 it was 11.6 µM (inactive); in the assay with NCI-H23, 18.7 µM (inactive); in the assay with UO-31, 15.1 µM (inactive); in the assay on DU-145, 27 µM (inactive).
On to `Cc1ccc(OP(=O)(Oc2ccc(C)cc2)N2C=Cc3ccccc3C2C#N)cc1` (stereo not drawn), for which the GI50 with A549, with EKVX, in the assay on MDA-MB-231, in the assay with MDA-MB-435, in the assay on SK-MEL-28 and with SNB-19 was > 100 µM (inactive) in each case. Further, the GI50 with Malme-3M is 82.8 µM (inactive); with OVCAR-4, > 100 µM (inactive); in the assay on SF-295, > 100 µM (inactive); with HCT-116 it was > 100 µM (inactive); with CCRF-CEM, > 100 µM (inactive); in the assay with NCI-H522, 48.8 µM (inactive). The GI50 in the assay on SF-268, with HL-60, with NCI-H23, with UO-31, with T47D and in the assay with DU-145 was > 100 µM (inactive) each time.
